In patent US20070249639A1, “Use of 9H-Purine-2,6-Diamine Derivatives in the Treatment of Proliferative Diseases and Novel 9H-Purine-2,6-Diamine Derivatives” (priority 2004, published 2007):

target: T1, human topoisomerase II α (Homo sapiens, UniProt P11388); experiment: Topoisomerase II ATPase assay (Malachite Green); assay type: biochemical; conditions: not given
T1 construct: purchased Professor Neil Osheroff (Vanderbilt University, Nashville, Tenn., USA)
Description: The inhibition of topoisomerase II is measured as follows:
Purified human topoisomerase II α was purchased from Professor Neil Osheroff (Vanderbilt University—Nashville, Tenn., USA).
The pUC18 (Stratagene) plasmid was introduced into Escherichia coil XL-1 (Stratagene) and purified with the HiSpeed Plasmid Purification kit (Qiagen) according to the manufacturer instructions. The purity of the DNA preparations was evaluated spectrophotometrically (OD260/OD280 ratio) and by agarose gel.
Preparation of the Malachite Green Reagent:
Three volumes of 0.045% malachite green (Sigma, catalog no. M-9636) diluted in water are mixed for 20 min at room temperature with one volume of 4.2% ammonium molybdate (Axon Lab AG, catalog no. A-2246) diluted in 4 N HCl. After mixing, Triton X-100 (Merck, catalog no. 1.12298) is added to a final concentration of 0.01%. The solution is filtered at 0.2 μm and stored at room temperature in the dark.
ATP hydrolysis was monitored by measuring the production of inorganic phosphate released during the catalytic cycle of topoisomerase II α with acidic molybdate and malachite green (Lanzetta,et al., An improved assay for nanomole amounts of inorganic phosphate, Anal Biochem 1979;100:95-7). Briefly, human topoisomerase II α is pre-incubated at 37° C. for 10 min in 90 μl reaction buffer (10 mM Tris.HCl pH 7.9, 175 mM KCl, 1 mM EDTA, 2 mM DTT, 5 mM MgCl2, 2.5% glycerol) in the presence of the indicated amount of pUC18 and DMSO in F96 maxisorp Nunclmmuno plates (Nunc). The reaction is initiated by the addition of 10 μl ATP at the indicated concentrations and is carried out for 30 min at 37° C. under constant agitation. The reaction is stopped by the addition of 200 μl molybdate/malachite green solution and the absorbance is immediately measured at 630 nm. The OD630 value is measured in the absence of protein for each ATP concentration (background) is subtracted from the value obtained in the presence of enzyme. A standard curve with inorganic phosphate is used to determine the amount of inorganic phosphate produced during the reaction and to ensure that the measures are in the linear range of the assay. The kinetic parameters of the enzymes are determined from measurements (at least in duplicate) of the initial rates at different ATP concentrations. The data are analyzed with GraFit (Erithacus Software).
The compounds are tested at 10 μM of concentration to determine their inhibition potential given % of inhibition of the TOPO II ATPase activity.
For the determination of the IC50, the procedure is repeated for different concentrations of test compound selected to cover the range of 0% to 100% inhibition and the concentration at which 50% inhibition of topoisomerase II occurs (IC50) for each compound is determined from concentration-inhibition curves in a conventional manner.

T1 sequence (P11388 whole entry): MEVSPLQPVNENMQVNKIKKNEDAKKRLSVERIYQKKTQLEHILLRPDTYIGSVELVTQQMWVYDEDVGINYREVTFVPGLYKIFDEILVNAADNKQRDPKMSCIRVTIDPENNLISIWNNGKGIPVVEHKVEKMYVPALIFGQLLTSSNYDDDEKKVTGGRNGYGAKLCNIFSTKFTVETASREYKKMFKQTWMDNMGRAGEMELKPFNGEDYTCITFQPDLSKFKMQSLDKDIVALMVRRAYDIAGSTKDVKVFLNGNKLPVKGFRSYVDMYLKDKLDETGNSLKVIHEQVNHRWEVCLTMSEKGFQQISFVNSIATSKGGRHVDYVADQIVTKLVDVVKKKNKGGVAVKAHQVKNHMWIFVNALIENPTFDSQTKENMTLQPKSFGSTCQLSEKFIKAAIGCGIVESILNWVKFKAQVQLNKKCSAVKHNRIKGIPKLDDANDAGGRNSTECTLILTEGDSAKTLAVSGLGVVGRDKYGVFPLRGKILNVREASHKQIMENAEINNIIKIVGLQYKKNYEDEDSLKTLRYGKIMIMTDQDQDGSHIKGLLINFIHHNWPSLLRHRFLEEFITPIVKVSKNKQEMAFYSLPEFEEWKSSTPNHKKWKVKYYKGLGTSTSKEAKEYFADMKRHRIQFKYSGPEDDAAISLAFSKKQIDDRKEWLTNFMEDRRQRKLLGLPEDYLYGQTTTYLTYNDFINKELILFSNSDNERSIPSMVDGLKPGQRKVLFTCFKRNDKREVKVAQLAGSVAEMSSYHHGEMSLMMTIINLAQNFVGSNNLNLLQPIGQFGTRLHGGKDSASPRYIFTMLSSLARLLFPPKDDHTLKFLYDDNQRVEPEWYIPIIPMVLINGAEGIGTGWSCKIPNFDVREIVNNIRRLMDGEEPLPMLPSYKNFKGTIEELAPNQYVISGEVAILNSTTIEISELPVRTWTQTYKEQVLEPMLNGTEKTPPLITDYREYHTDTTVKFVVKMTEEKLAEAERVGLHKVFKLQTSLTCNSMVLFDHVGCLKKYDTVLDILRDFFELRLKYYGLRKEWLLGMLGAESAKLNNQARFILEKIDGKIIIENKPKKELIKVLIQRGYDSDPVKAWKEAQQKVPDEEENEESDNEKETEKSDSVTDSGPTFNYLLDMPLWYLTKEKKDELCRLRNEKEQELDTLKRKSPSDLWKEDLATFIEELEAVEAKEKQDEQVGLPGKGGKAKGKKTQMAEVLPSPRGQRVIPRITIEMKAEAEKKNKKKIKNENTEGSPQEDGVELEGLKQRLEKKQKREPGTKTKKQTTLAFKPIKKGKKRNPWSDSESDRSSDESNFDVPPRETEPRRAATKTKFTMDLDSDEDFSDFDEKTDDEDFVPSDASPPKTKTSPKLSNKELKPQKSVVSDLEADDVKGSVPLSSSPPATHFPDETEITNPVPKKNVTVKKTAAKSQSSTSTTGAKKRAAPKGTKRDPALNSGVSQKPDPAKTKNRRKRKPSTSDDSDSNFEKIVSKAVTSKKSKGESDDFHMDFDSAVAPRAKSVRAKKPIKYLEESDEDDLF

| IC50 [nM] | SMILES |
| --- | --- |
| 2800 | CCc1nc2c(NC(C)(C)C)nc(Nc3ccc4oc(=O)ccc4c3)nc2[nH]1 [Example 35, 6-(6-tert-Butylamino-8-ethyl-9H-purin-2-ylamino)-chromen-2-one] |
| 900 | CCc1nc2c(NC(C)(C)C)nc(Nc3ccc4nc(SC)sc4c3)nc2[nH]1 [Example 36, N*6*-tert-Butyl-8-ethyl-N*2*-(2-methylsulfanyl-benzothiazol-6-yl)-9H-purine-2,6-diamine] |

Further lines, the compound ahead of its results:

| SMILES | IC50 [nM] |
| --- | --- |
| c1nc2c(NC3CCCCCC3)nc(Nc3ccc4ncsc4c3)nc2[nH]1 [Example 1, N*2*-Benzothiazol-6-yl-N*6*-cycloheptyl-9H-purine-2,6-diamine] | 8400 |
| CC(C)(C)Nc1nc(Nc2ccc3ccccc3c2)nc2[nH]cnc12 [Example 15, N*6*-tert-Butyl-N*2*-naphthalen-2-yl-9H-purine-2,6-diamine] | 3300 |
| CC(C)(C)Nc1nc(Nc2ccc3cc(OCCN4CCOCC4)ccc3c2)nc2[nH]cnc12 [Example 22, N*6*-tert-Butyl-N*2*-[6-(2-morpholin-4-yl-ethoxy)-naphthalen-2-yl]-9H-purine-2,6-diamine] | 1800 |

same assay, conditions: OD measured at 630 nm

| ATP competitive inhibitor activity | SMILES |
| --- | --- |
| ATP competitive inhibitor | c1nc2c(NC3CCCCCC3)nc(Nc3ccc4ncsc4c3)nc2[nH]1 [Example 1, N*2*-Benzothiazol-6-yl-N*6*-cycloheptyl-9H-purine-2,6-diamine] |

same assay, conditions: Percent inhibition @10 μM, Malachite Green assay; read-out: TOPO II inh. (inhibition of the TOPO ATPase activity)

| inhibition at 10 µM [%] | SMILES |
| --- | --- |
| < 50 | Cc1nc2c(NC3CCCCCC3)nc(Nc3ccc4ncsc4c3)nc2[nH]1 [Example 26, N*2*-Benzothiazol-6-yl-N*6*-cycloheptyl-8-methyl-9H-purine-2,6-diamine] |
| 50 to 65 | CCc1nc2c(NC(C)C(F)(F)F)nc(Nc3ccc4ncsc4c3)nc2[nH]1 (stereo not drawn) [Example 28, N*2*-Benzothiazol-6-yl-8-ethyl-N*6*-(2,2,2-trifluoro-1-methyl-ethyl)-9H-purine-2,6-diamine] |
| < 50 | CCc1nc2c(N3CCCC3C)nc(Nc3ccc4ncsc4c3)nc2[nH]1 (stereo not drawn) [Example 29, Benzothiazol-6-yl-[8-ethyl-6-(2-methyl-pyrrolidin-1-yl)-9H-purin-2-yl]-amine] |
| 0 | CCc1nc2c(NC(C)CC(N)=O)nc(Nc3ccc4ncsc4c3)nc2[nH]1 (stereo not drawn) [Example 30, 3-[2-(Benzothiazol-6-ylamino)-8-ethyl-9H-purin-6-ylamino]-butyramide] |
| < 50 | CCOC(=O)CC(C)Nc1nc(Nc2ccc3ncsc3c2)nc2[nH]c(CC)nc12 (stereo not drawn) [Example 31, 3-[2-(Benzothiazol-6-ylamino)-8-ethyl-9H-purin-6-ylamino]-butyric acid ethyl ester] |
| < 50 | CCCc1nc2c(NC(C)(C)C)nc(Nc3ccc4ncsc4c3)nc2[nH]1 [Example 32, N*2*-Benzothiazol-6-yl-N*6*-tert-butyl-8-propyl-9H-purine-2,6-diamine] |
| < 50 | CC(C)c1nc2c(NC(C)(C)C)nc(Nc3ccc4ncsc4c3)nc2[nH]1 [Example 33, N*2*-Benzothiazol-6-yl-N*6*-tert-butyl-8-isopropyl-9H-purine-2,6-diamine] |
| < 50 | CC(C)(C)Nc1nc(Nc2ccc3ncsc3c2)nc2[nH]c(C3CCCC3)nc12 [Example 34, N*2*-Benzothiazol-6-yl-N*6*-tert-butyl-8-cyclopentyl-9H-purine-2,6-diamine] |
| 65 to 80 | CCc1nc2c(NC(C)(C)C)nc(Nc3ccc4oc(=O)ccc4c3)nc2[nH]1 [Example 35, 6-(6-tert-Butylamino-8-ethyl-9H-purin-2-ylamino)-chromen-2-one] |
| ≥ 80 | CCc1nc2c(NC(C)(C)C)nc(Nc3ccc4nc(SC)sc4c3)nc2[nH]1 [Example 36, N*6*-tert-Butyl-8-ethyl-N*2*-(2-methylsulfanyl-benzothiazol-6-yl)-9H-purine-2,6-diamine] |

Second part, the compound before the results:

| SMILES | inhibition at 10 µM [%] |
| --- | --- |
| c1csc(-c2ccc(Nc3nc(NC4CCCCCC4)c4nc[nH]c4n3)cc2)n1 [Example 2, N*6*-Cycloheptyl-N*2*-(4-thiazol-2-yl-phenyl)-9H-purine-2,6-diamine] | < 50 |
| c1nc2c(NC3C4CC5CC(C4)CC3C5)nc(Nc3ccc4ncsc4c3)nc2[nH]1 (stereo not drawn) [Example 5, N*6*-Adamantan-2-yl-N*2*-benzothiazol-6-yl-9H-purine-2,6-diamine] | 50 to 65 |
| c1nc2c(NC3CC4CCC3C4)nc(Nc3ccc4ncsc4c3)nc2[nH]1 (stereo not drawn) [Example 6, N*2*-Benzothiazol-6-yl-N*6*-bicyclo[2.2.1]hept-2-yl-9H-purine-2,6-diamine] | 50 to 65 |
| c1nc2c(NC3CCCCCCC3)nc(Nc3ccc4ncsc4c3)nc2[nH]1 [Example 7, N*2*-Benzothiazol-6-yl-N*6*-cyclooctyl-9H-purine-2,6-diamine] | 50 to 65 |
| COc1cccc(Nc2nc(Nc3ccc4ncsc4c3)nc3[nH]cnc23)c1 [Example 8, N*2*-Benzothiazol-6-yl-N*6*-(3-methoxy-phenyl)-9H-purine-2,6-diamine] | < 50 |
| OC1CCC(Nc2nc(Nc3ccc4ncsc4c3)nc3[nH]cnc23)CC1 (stereo not drawn) [Example 9, 4-[2-(Benzothiazol-6-ylamino)-9H-purin-6-ylamino]-cyclohexanol] | < 50 |
| c1cnc2ccc(Nc3nc(Nc4ccc5ncccc5c4)c4nc[nH]c4n3)cc2c1 [Example 10, N*2*,N*6*-Di-quinolin-6-yl-9H-purine-2,6-diamine] | < 50 |
| c1ccc(C(Nc2nc(Nc3ccc4ncsc4c3)nc3[nH]cnc23)c2ccccc2)cc1 [Example 11, N*6*-Benzhydryl-N*2*-benzothiazol-6-yl-9H-purine-2,6-diamine] | < 50 |
| c1ccc(Nc2nc(Nc3ccc4ncccc4c3)nc3[nH]cnc23)cc1 [Example 12, N*6*-Phenyl-N*2*-quinolin-6-yl-9H-purine-2,6-diamine] | 50 to 65 |
| c1ccc(C(Nc2nc(Nc3ccc4ncccc4c3)nc3[nH]cnc23)c2ccccc2)cc1 [Example 13, N*6*-Benzhydryl-N*2*-quinolin-6-yl-9H-purine-2,6-diamine] | < 50 |
| CC(C)(C)Nc1nc(Nc2ccc3ccccc3c2)nc2[nH]cnc12 [Example 15, N*6*-tert-Butyl-N*2*-naphthalen-2-yl-9H-purine-2,6-diamine] | 65 to 80 |
| Cc1ccc2cc(Nc3nc(NC(C)(C)C)c4nc[nH]c4n3)ccc2n1 [Example 16, N*6*-tert-Butyl-N*2*-(2-methyl-quinolin-6-yl)-9H-purine-2,6-diamine] | 50 to 65 |
| Cc1nc2cc(Nc3nc(NC(C)(C)C)c4nc[nH]c4n3)ccc2s1 [Example 17, N*6*-tert-Butyl-N*2*-(2-methyl-benzothiazol-5-yl)-9H-purine-2,6-diamine] | < 50 |
| CC(C)(C)Nc1nc(Nc2ccc3nc(C(C)(C)C)sc3c2)nc2[nH]cnc12 [Example 18, N*6*-tert-Butyl-N*2*-(2-tert-butyl-benzothiazol-6-yl)-9H-purine-2,6-diamine] | 65 to 80 |
| Cc1nc2ccc(Nc3nc(NC(C)(C)C)c4nc[nH]c4n3)cc2s1 [Example 19, N*6*-tert-Butyl-N*2*-(2-methyl-benzothiazol-6-yl)-9H-purine-2,6-diamine] | 50 to 65 |
| CC(C)(C)Nc1nc(Nc2ccc(-c3nc4ccccc4s3)cc2)nc2[nH]cnc12 [Example 20, N*2*-(4-Benzothiazol-2-yl-phenyl)-N*6*-tert-butyl-9H-purine-2,6-diamine] | 65 to 80 |
| COc1ccc2cc(Nc3nc(NC(C)(C)C)c4nc[nH]c4n3)ccc2c1 [Example 21, N*6*-tert-Butyl-N*2*-(6-methoxy-naphthalen-2-yl)-9H-purine-2,6-diamine] | ≥ 80 |
| CC(C)(C)Nc1nc(Nc2ccc3cc(OCCN4CCOCC4)ccc3c2)nc2[nH]cnc12 [Example 22, N*6*-tert-Butyl-N*2*-[6-(2-morpholin-4-yl-ethoxy)-naphthalen-2-yl]-9H-purine-2,6-diamine] | ≥ 80 |
| Cc1cc2cc(Nc3nc(NC(C)(C)C)c4nc[nH]c4n3)ccc2[nH]1 [Example 23, N*6*-tert-Butyl-N*2*-(2-methyl-1H-indol-5-yl)-9H-purine-2,6-diamine] | < 50 |
| CC(C)(C)Nc1nc(Nc2ccc3[nH]ccc3c2)nc2[nH]cnc12 [Example 24, N*6*-tert-Butyl-N*2*-(1H-indol-5-yl)-9H-purine-2,6-diamine] | < 50 |
